Experimental data published in US12577245B2, “Sulfonyl benzamide derivatives as Bcl-2 inhibitors” (ASCENTAGE PHARMA (SUZHOU) CO., LTD., priority 2021, dated 2026).

These compounds were tested against Bcl-2 G101V (Homo sapiens, UniProt P10415, G101V) (assay: Bcl-2 G101V inhibition, fluorescence polarization (Flu-BIM tracer) binding assay). Conditions: FP; 20 nM Bcl2, 5 nM Flu-BIM, 1 h incubation; read-out: Bcl-2 G101V (FP).
Work on `CC1(C)CCC(CN2CCN(c3ccc(C(=O)NS(=O)(=O)c4ccc(NC[C@H]5CC[C@@](C)(O)CC5)c([N+](=O)[O-])c4)c(Oc4cnc5[nH]ccc5c4)c3)CC2)=C(c2cc(CN3CCOCC3)cs2)C1` [Example 23, 2-((1H-pyrrolo[2,3-b]pyridin-5-yl)oxy)-4-(4-((4,4-dimethyl-2-(4-(morpholinomethyl)thiophen-2-yl)cyclohex-1-en-1-yl)methyl)piperazin-1-yl)-N-((4-((((1s,4s)-4-hydroxy-4-methylcyclohexyl)methyl)amino)-3-nitrophenyl)sulfonyl)benzamide] yielded an IC50 of 28.2 nM. For `CC(=O)NC(C)(C)c1cc(F)c(-c2csc(C3=C(CN4CCN(c5ccc(C(=O)NS(=O)(=O)c6ccc(NC[C@H]7CC[C@](C)(O)CC7)c([N+](=O)[O-])c6)c(Oc6cnc7[nH]ccc7c6)c5)CC4)CCC(C)(C)C3)c2)c(F)c1` [Example 80, 2-((1H-pyrrolo[2,3-b]pyridin-5-yl)oxy)-4-(4-((2-(4-(4-(2-acetamidopropan-2-yl)-2,6-difluorophenyl)thiophen-2-yl)-4,4-dimethylcyclohex-1-en-1-yl)methyl)piperazin-1-yl)-N-((4-((((1r,4r)-4-hydroxy-4-methylcyclohexyl)methyl)amino)-3-nitrophenyl)sulfonyl)benzamide], the IC50 was 23.4 nM. With `CC1(C)CCC(CN2CCN(c3ccc(C(=O)NS(=O)(=O)c4ccc(NC[C@H]5CC[C@](C)(O)CC5)c([N+](=O)[O-])c4)c(Oc4cnc5[nH]ccc5c4)c3)CC2)=C(c2cc(CN3CCOCC3)cs2)C1` [Example 24, 2-((1H-pyrrolo[2,3-b]pyridin-5-yl)oxy)-4-(4-((4,4-dimethyl-2-(4-(morpholinomethyl)thiophen-2-yl)cyclohex-1-en-1-yl)methyl)piperazin-1-yl)-N-((4-((((1r,4r)-4-hydroxy-4-methylcyclohexyl)methyl)amino)-3-nitrophenyl)sulfonyl)benzamide] the IC50 was 30.1 nM. `CC1(C)CCC(CN2CCN(c3ccc(C(=O)NS(=O)(=O)c4ccc(NC[C@H]5COCCO5)c([N+](=O)[O-])c4)c(Oc4cnc5[nH]ccc5c4)c3)CC2)=C(c2cc(-c3ccc(C(F)F)cc3)cs2)C1` [Example 48, (S)—N-((4-(((1,4-dioxan-2-yl)methyl)amino)-3-nitrophenyl)sulfonyl)-2-((1H-pyrrolo[2,3-b]pyridin-5-yl)oxy)-4-(4-((2-(4-(4-(difluoromethyl)phenyl)thiophen-2-yl)-4,4-dimethylcyclohex-1-en-1-yl)methyl)piperazin-1-yl)benzamide] showed an IC50 of 36.7 nM. `Cc1cscc1C1=C(CN2CCN(c3ccc(C(=O)NS(=O)(=O)c4ccc(NCC5CCOCC5)c([N+](=O)[O-])c4)c(Oc4cnc5[nH]ccc5c4)c3)CC2)CCC(C)(C)C1` [Example 2, 2-((1H-pyrrolo[2,3-b]pyridin-5-yl)oxy)-4-(4-((4,4-dimethyl-2-(4-methylthiophen-3-yl)cyclohex-1-en-1-yl)methyl)piperazin-1-yl)-N-((3-nitro-4-(((tetrahydro-2H-pyran-4-yl)methyl)amino)phenyl)sulfonyl)benzamide] showed an IC50 of 32.6 nM. `C[C@@H]1CN(Cc2csc(C3=C(CN4CCN(c5ccc(C(=O)NS(=O)(=O)c6ccc(NC[C@H]7COCCO7)c([N+](=O)[O-])c6)c(Oc6cnc7[nH]ccc7c6)c5)CC4)CCC(C)(C)C3)c2)C[C@H](C)N1C` [Example 29, N-((4-((((S)-1,4-dioxan-2-yl)methyl)amino)-3-nitrophenyl)sulfonyl)-2-((1H-pyrrolo[2,3-b]pyridin-5-yl)oxy)-4-(4-((4,4-dimethyl-2-(4-(((3S,5R)-3,4,5-trimethylpiperazin-1-yl)methyl)thiophen-2-yl)cyclohex-1-en-1-yl)methyl)piperazin-1-yl)benzamide] gave an IC50 of 71.3 nM. With `CC(C)c1sccc1C1=C(CN2CCN(c3ccc(C(=O)NS(=O)(=O)c4ccc(NCC5CCOCC5)c([N+](=O)[O-])c4)c(Oc4cnc5[nH]ccc5c4)c3)CC2)CCC(C)(C)C1` [Example 11, 2-((1H-pyrrolo[2,3-b]pyridin-5-yl)oxy)-4-(4-((2-(2-isopropylthiophen-3-yl)-4,4-dimethylcyclohex-1-en-1-yl)-methyl)piperazin-1-yl)-N-((3-nitro-4-(((tetrahydro-2H-pyran-4-yl)methyl)amino)-phenyl)sulfonyl)benzamide] the IC50 was 37.6 nM. For `CC1(C)CCC(CN2CCN(c3ccc(C(=O)NS(=O)(=O)c4ccc(NC[C@H]5COCCO5)c([N+](=O)[O-])c4)c(Oc4cnc5[nH]ccc5c4)c3)CC2)=C(c2cc(CN3CCC(N4CCOCC4)CC3)cs2)C1` [Example 28, (S)—N-((4-(((1,4-dioxan-2-yl)methyl)amino)-3-nitrophenyl)sulfonyl)-2-((1H-pyrrolo[2,3-b]pyridin-5-yl)oxy)-4-(4-((4,4-dimethyl-2-(4-((4-morpholinopiperidin-1-yl)methyl)thiophen-2-yl)cyclohex-1-en-1-yl)methyl)piperazin-1-yl)benzamide], the IC50 was 47 nM. `CC1(C)CCC(CN2CCN(c3ccc(C(=O)NS(=O)(=O)c4ccc(NC[C@H]5COCCO5)c([N+](=O)[O-])c4)c(Oc4cnc5[nH]ccc5c4)c3)CC2)=C(c2cc(-c3ccc(Cl)cc3)cs2)C1` [Example 38, (S)—N-((4-(((1,4-dioxan-2-yl)methyl)amino)-3-nitrophenyl)sulfonyl)-2-((1H-pyrrolo[2,3-b]pyridin-5-yl)oxy)-4-(4-((2-(4-(4-chlorophenyl)thiophen-2-yl)-4,4-dimethylcyclohex-1-en-1-yl)methyl)piperazin-1-yl)benzamide] gave an IC50 of 35.4 nM. For `CC1(C)CCC(CN2CCN(c3ccc(C(=O)NS(=O)(=O)c4ccc(NC[C@H]5COCCO5)c([N+](=O)[O-])c4)c(Oc4cnc5[nH]ccc5c4)c3)CC2)=C(c2cc(CN3CCN4CCOC[C@H]4C3)cs2)C1` [Example 30, N-((4-((((S)-1,4-dioxan-2-yl)methyl)amino)-3-nitrophenyl)sulfonyl)-2-((1H-pyrrolo[2,3-b]pyridin-5-yl)oxy)-4-(4-((2-(4-(((R)-hexahydropyrazino[2,1-c][1,4]oxazin-8(1H)-yl)methyl)thiophen-2-yl)-4,4-dimethylcyclohex-1-en-1-yl)methyl)piperazin-1-yl)benzamide], the IC50 was 66 nM. Compound `CC(C)c1csc(C2=C(CN3CCN(c4ccc(C(=O)NS(=O)(=O)c5ccc(NC[C@H]6COCCO6)c([N+](=O)[O-])c5)c(Oc5cnc6[nH]ccc6c5)c4)CC3)CCC(C)(C)C2)c1` [Example 10, (S)—N-((4-(((1,4-dioxan-2-yl)methyl)amino)-3-nitrophenyl)sulfonyl)-2-((1H-pyrrolo[2,3-b]pyridin-5-yl)oxy)-4-(4-((2-(4-isopropylthiophen-2-yl)-4,4-dimethylcyclohex-1-en-1-yl)methyl)piperazin-1-yl)benzamide] has an IC50 of 27.7 nM. `CC1(C)CCC(CN2CCN(c3ccc(C(=O)NS(=O)(=O)c4ccc(NC[C@H]5CC[C@](C)(O)CC5)c([N+](=O)[O-])c4)c(Oc4cnc5[nH]ccc5c4)c3)CC2)=C(c2cc(-c3cccc(C(C)(C)O)c3)cs2)C1` [Example 70, 2-((1H-pyrrolo[2,3-b]pyridin-5-yl)oxy)-N-((4-((((1r,4r)-4-hydroxy-4-methylcyclohexyl)methyl)amino)-3-nitrophenyl)sulfonyl)-4-(4-((2-(4-(3-(2-hydroxypropan-2-yl)phenyl)thiophen-2-yl)-4,4-dimethylcyclohex-1-en-1-yl)methyl)piperazin-1-yl)benzamide] gave an IC50 of 36.9 nM. With `CC1(C)CCC(CN2CCN(c3ccc(C(=O)NS(=O)(=O)c4ccc(NC[C@H]5COCCO5)c([N+](=O)[O-])c4)c(Oc4cnc5[nH]ccc5c4)c3)CC2)=C(c2cc(CN3CCC(F)(F)CC3)cs2)C1` [Example 32, (S)—N-((4-(((1,4-dioxan-2-yl)methyl)amino)-3-nitrophenyl)sulfonyl)-2-((1H-pyrrolo[2,3-b]pyridin-5-yl)oxy)-4-(4-((2-(4-((4,4-difluoropiperidin-1-yl)methyl)thiophen-2-yl)-4,4-dimethylcyclohex-1-en-1-yl)methyl)piperazin-1-yl)benzamide] the IC50 was 25.7 nM. Work on `Cc1sc(C2=C(CN3CCN(c4ccc(C(=O)NS(=O)(=O)c5ccc(NC[C@H]6CC[C@](C)(O)CC6)c([N+](=O)[O-])c5)c(Oc5cnc6[nH]ccc6c5)c4)CC3)CCC(C)(C)C2)cc1-c1c(F)cc(C(C)(C)O)cc1F` [Example 81, 2-((1H-pyrrolo[2,3-b]pyridin-5-yl)oxy)-4-(4-((2-(4-(2,6-difluoro-4-(2-hydroxypropan-2-yl)phenyl)-5-methylthiophen-2-yl)-4,4-dimethylcyclohex-1-en-1-yl)methyl)piperazin-1-yl)-N-((4-((((1r,4r)-4-hydroxy-4-methylcyclohexyl)methyl)amino)-3-nitrophenyl)sulfonyl)benzamide] yielded an IC50 of 103 nM. Compound `CC(C)(O)Cc1ccc(-c2csc(C3=C(CN4CCN(c5ccc(C(=O)NS(=O)(=O)c6ccc(NC[C@H]7CC[C@](C)(O)CC7)c([N+](=O)[O-])c6)c(Oc6cnc7[nH]ccc7c6)c5)CC4)CCC(C)(C)C3)c2)c(F)c1` [Example 73, 2-((1H-pyrrolo[2,3-b]pyridin-5-yl)oxy)-4-(4-((2-(4-(2-fluoro-4-(2-hydroxy-2-methylpropyl)phenyl)thiophen-2-yl)-4,4-dimethylcyclohex-1-en-1-yl)methyl)piperazin-1-yl)-N-((4-((((1r,4r)-4-hydroxy-4-methylcyclohexyl)methyl)amino)-3-nitrophenyl)sulfonyl)benzamide] has an IC50 of 25.2 nM. With `CC1(C)CCC(CN2CCN(c3ccc(C(=O)NS(=O)(=O)c4ccc(NC[C@H]5CC[C@](C)(O)CC5)c([N+](=O)[O-])c4)c(Oc4cnc5[nH]ccc5c4)c3)CC2)=C(c2cc(-c3c(F)cc(C(C)(C)CO)cc3F)cs2)C1` [Example 74, 2-((1H-pyrrolo[2,3-b]pyridin-5-yl)oxy)-4-(4-((2-(4-(2,6-difluoro-4-(1-hydroxy-2-methylpropan-2-yl)phenyl)thiophen-2-yl)-4,4-dimethylcyclohex-1-en-1-yl)methyl)piperazin-1-yl)-N-((4-((((1r,4r)-4-hydroxy-4-methylcyclohexyl)methyl)amino)-3-nitrophenyl)sulfonyl)benzamide] the IC50 was 30.2 nM.
